Experimental data published in article PMC6219668 (Oncotarget, 2018).
pIC50: −log10 of the molar value. Read-outs that look alike come from different tables or passages of the source.

Tested on: panel of nearly 500 cancer cell lines
Experiment: Cancer Cell Line Encyclopedia profiling, 3-day CellTiter-Glo
Type: cell-based
Conditions: read-out: IC50

Measured: pIC50

CC(=O)c1c(C)c2cnc(Nc3ccc(N4CCNCC4)cn3)nc2n(C2CCCC2)c1=O [Palbociblib]
6.37: istmes2 (pleura)
5.10: mc116 (haematopoietic_and_lymphoid_tissue)
5.76: hgc27 (stomach)
5.12: au565 (breast) | p3hr1 (haematopoietic_and_lymphoid_tissue)
5.83: colo201 (large_intestine)
5.92: sudhl8 (haematopoietic_and_lymphoid_tissue)
5.69: ncih1793 (lung)
5.47: sudhl10 (haematopoietic_and_lymphoid_tissue)
5.24: snu1 (stomach)
5.60: hcc1954 (breast)
5.23: reh (haematopoietic_and_lymphoid_tissue) | supm2 (haematopoietic_and_lymphoid_tissue)
5.79: nugc4 (stomach)
5.34: bl70 (haematopoietic_and_lymphoid_tissue) | ls513 (large_intestine) | mj (haematopoietic_and_lymphoid_tissue)
5.82: ociaml2 (haematopoietic_and_lymphoid_tissue)
5.27: 8305c (thyroid)
5.45: ke39 (stomach)
5.85: mino (haematopoietic_and_lymphoid_tissue)
5.59: ke97 (haematopoietic_and_lymphoid_tissue) | lu99 (lung)
5.72: bdcm (haematopoietic_and_lymphoid_tissue)
5.17: 769p (kidney) | colo320 (large_intestine) | mdamb415 (breast) | ncih2444 (lung)
5.99: te617t (soft_tissue)
5.50: detroit562 (upper_aerodigestive_tract)
5.16: pfeiffer (haematopoietic_and_lymphoid_tissue)
5.20: ku812 (haematopoietic_and_lymphoid_tissue)
5.73: cell line vmrclcd, lung
5.26: cmk (haematopoietic_and_lymphoid_tissue) | msto211h (pleura)
5.39: gct (soft_tissue)
5.19: ci1 (haematopoietic_and_lymphoid_tissue)
5.15: an3ca (endometrium)
5.35: ncih1944 (lung)
5.78: kms26 (haematopoietic_and_lymphoid_tissue) | sw780 (urinary_tract)
< 5.10: 22rv1 (prostate) | 639v (urinary_tract) | 5637 (urinary_tract) | 8505c (thyroid) | a172 (central_nervous_system) | a204 (soft_tissue) | a253 (salivary_gland) | a375 (skin) | a549 (lung) | a673 (bone) | a2058 (skin) | a2780 (ovary) | amo1 (haematopoietic_and_lymphoid_tissue) | aspc1 (pancreas) | az521 (stomach) | bftc909 (kidney) | bgc823 (stomach) | bl41 (haematopoietic_and_lymphoid_tissue) | bt20 (breast) | bt474 (breast) | bt549 (breast) | c2bbe1 (large_intestine) | c3a (liver) | c32 (skin) | caki2 (kidney) | cal27 (upper_aerodigestive_tract) | cal78 (bone) | cal851 (breast) | calu1 (lung) | calu3 (lung) | cama1 (breast) | capan2 (pancreas) | cas1 (central_nervous_system) | cell line tyknu, ovary | cell line u87mg, central_nervous_system | cell line u118mg, central_nervous_system | cell line u2os, bone | cell line u937, haematopoietic_and_lymphoid_tissue | cell line uacc812, breast | cell line umuc3, urinary_tract | cell line vmrcrcw, kidney | cell line vmrcrcz, kidney | cell line zr7530, breast | chl1 (skin) | colo679 (skin) | corl23 (lung) | corl23cpr (lung) | cov318 (ovary) | cov504 (ovary) | daoy (central_nervous_system) | dbtrg05mg (central_nervous_system) | dkmg (central_nervous_system) | dms114 (lung) | dov13 (ovary) | du145 (prostate) | eb1 (haematopoietic_and_lymphoid_tissue) | eb2 (haematopoietic_and_lymphoid_tissue) | ebc1 (lung) | efe184 (endometrium) | efm19 (breast) | efo21 (ovary) | efo27 (ovary) | en (endometrium) | es2 (ovary) | fadu (upper_aerodigestive_tract) | fuov1 (ovary) | g361 (skin) | g401 (soft_tissue) | gb1 (central_nervous_system) | gciy (stomach) | glc82 (lung) | gms10 (central_nervous_system) | h4 (central_nervous_system) | hcc15 (lung) | hcc56 (large_intestine) | hcc70 (breast) | hcc78 (lung) | hcc1187 (breast) | hcc1569 (breast) | hcc1806 (breast) | hcc2935 (lung) | hcc4006 (lung) | hct15 (large_intestine) | hct116 (large_intestine) | hec1a (endometrium) | hec59 (endometrium) | hec151 (endometrium) | hec251 (endometrium) | hec265 (endometrium) | hel9217 (haematopoietic_and_lymphoid_tissue) | hep3b217 (liver) | hepg2 (liver) | heya8 (ovary) | hh (haematopoietic_and_lymphoid_tissue) | hle (liver) | hlf (liver) | hmc18 (breast) | hmcb (skin) | hos (bone) | hpac (pancreas) | hs229t (lung) | hs294t (skin) | hs578t (breast) | hs683 (central_nervous_system) | hs695t (skin) | hs739t (breast) | hs746t (stomach) | hs766t (pancreas) | hs840t (upper_aerodigestive_tract) | hs852t (skin) | hs936t (skin) | hs939t (skin) | hs944t (skin) | hsc2 (upper_aerodigestive_tract) | ht29 (large_intestine) | ht144 (skin) | ht1080 (soft_tissue) | ht1197 (urinary_tract) | ht1376 (urinary_tract) | ht (haematopoietic_and_lymphoid_tissue) | hucct1 (biliary_tract) | huh1 (liver) | hupt3 (pancreas) | hupt4 (pancreas) | hut78 (haematopoietic_and_lymphoid_tissue) | ialm (lung) | igr37 (skin) | igr39 (skin) | igrov1 (ovary) | imr32 (autonomic_ganglia) | ipc298 (skin) | istmes1 (pleura) | j82 (urinary_tract) | jhh2 (liver) | jhh4 (liver) | jhh6 (liver) | jhos2 (ovary) | jhos4 (ovary) | jm1 (haematopoietic_and_lymphoid_tissue) | jmsu1 (urinary_tract) | k029ax (skin) | kals1 (central_nervous_system) | karpas422 (haematopoietic_and_lymphoid_tissue) | kg1 (haematopoietic_and_lymphoid_tissue) | kle (endometrium) | kmbc2 (urinary_tract) | kmrc1 (kidney) | kms12bm (haematopoietic_and_lymphoid_tissue) | kns42 (central_nervous_system) | kns60 (central_nervous_system) | kp1n (pancreas) | kp1nl (pancreas) | kp2 (pancreas) | kp3 (pancreas) | kp4 (pancreas) | kyse30 (oesophagus) | kyse410 (oesophagus) | kyse520 (oesophagus) | l33 (pancreas) | lc1sqsf (lung) | lclc103h (lung) | ln18 (central_nervous_system) | ln229 (central_nervous_system) | lounh91 (lung) | loximvi (skin) | ls123 (large_intestine) | ludlu1 (lung) | m059j (central_nervous_system) | malme3m (skin) | mcas (ovary) | mcf7 (breast) | mdamb157 (breast) | mdamb175vii (breast) | mdamb436 (breast) | mdamb453 (breast) | mdamb468 (breast) | meg01 (haematopoietic_and_lymphoid_tissue) | melho (skin) | messa (soft_tissue) | mfe280 (endometrium) | mg63 (bone) | miapaca2 (pancreas) | mkn7 (stomach) | mkn45 (stomach) | mkn74 (stomach) | moggccm (central_nervous_system) | mpp89 (pleura) | ncih23 (lung) | ncih211 (lung) | ncih226 (lung) | ncih322 (lung) | ncih358 (lung) | ncih441 (lung) | ncih520 (lung) | ncih522 (lung) | ncih647 (lung) | ncih650 (lung) | ncih661 (lung) | ncih727 (lung) | ncih747 (large_intestine) | ncih810 (lung) | ncih1048 (lung) | ncih1092 (lung) | ncih1184 (lung) | ncih1341 (lung) | ncih1355 (lung) | ncih1373 (lung) | ncih1563 (lung) | ncih1568 (lung) | ncih1573 (lung) | ncih1581 (lung) | ncih1648 (lung) | ncih1650 (lung) | ncih1651 (lung) | ncih1666 (lung) | ncih1693 (lung) | ncih1694 (lung) | ncih1792 (lung) | ncih1869 (lung) | ncih1915 (lung) | ncih1975 (lung) | ncih2009 (lung) | ncih2023 (lung) | ncih2030 (lung) | ncih2052 (pleura) | ncih2085 (lung) | ncih2087 (lung) | ncih2122 (lung) | ncih2170 (lung) | ncih2172 (lung) | ncih2228 (lung) | ncih2452 (pleura) | ncih3255 (lung) | ncin87 (stomach) | nihovcar3 (ovary) | nugc3 (stomach) | oc314 (ovary) | oc315 (ovary) | oc316 (ovary) | ocum1 (stomach) | oe33 (oesophagus) | oncodg1 (ovary) | ons76 (central_nervous_system) | ov90 (ovary) | ovcar4 (ovary) | ovcar8 (ovary) | ovmana (ovary) | ovsaho (ovary) | ovtoko (ovary) | p31fuj (haematopoietic_and_lymphoid_tissue) | panc0203 (pancreas) | panc0327 (pancreas) | panc0403 (pancreas) | panc1005 (pancreas) | pc3 (prostate) | pk1 (pancreas) | pk59 (pancreas) | pk45h (pancreas) | pl45 (pancreas) | plcprf5 (liver) | raji (haematopoietic_and_lymphoid_tissue) | rd (soft_tissue) | rerfgc1b (stomach) | rerflcai (lung) | rerflcms (lung) | rkn (soft_tissue) | rko (large_intestine) | rl952 (endometrium) | rt4 (urinary_tract) | rt112 (urinary_tract) | rvh421 (skin) | saos2 (bone) | sbc5 (lung) | scaber (urinary_tract) | scc25 (upper_aerodigestive_tract) | sf126 (central_nervous_system) | sf295 (central_nervous_system) | sf8657 (skin) | sh10tc (stomach) | shp77 (lung) | sjrh30 (soft_tissue) | sjsa1 (bone) | skbr3 (breast) | skco1 (large_intestine) | skes1 (bone) | skhep1 (liver) | sklu1 (lung) | skmel2 (skin) | skmel5 (skin) | skmel24 (skin) | skmel30 (skin) | skmel31 (skin) | skmm2 (haematopoietic_and_lymphoid_tissue) | sknas (autonomic_ganglia) | skndz (autonomic_ganglia) | sknsh (autonomic_ganglia) | skov3 (ovary) | sngm (endometrium) | snu16 (stomach) | snu182 (liver) | snu423 (liver) | snu449 (liver) | snuc2a (large_intestine) | snuc2b (large_intestine) | su8686 (pancreas) | suit2 (pancreas) | supt1 (haematopoietic_and_lymphoid_tissue) | sw48 (large_intestine) | sw403 (large_intestine) | sw480 (large_intestine) | sw579 (thyroid) | sw620 (large_intestine) | sw900 (lung) | sw1271 (lung) | sw1353 (bone) | sw1417 (large_intestine) | sw1990 (pancreas) | t3m10 (lung) | t24 (urinary_tract) | t84 (large_intestine) | t98g (central_nervous_system) | t47d (breast) | tc71 (bone) | tccsup (urinary_tract) | te9 (oesophagus) | ten (endometrium) | toledo (haematopoietic_and_lymphoid_tissue) | tov21g (ovary) | tov112d (ovary)
6.35: hs895t (skin)
5.22: ncih28 (pleura)
5.14: colo205 (large_intestine)
5.13: cell line ykg1, central_nervous_system | karpas299 (haematopoietic_and_lymphoid_tissue)
5.30: hec1b (endometrium) | sknbe2 (autonomic_ganglia)
5.32: oe21 (oesophagus)
